Reference: patent US11613536B2, “Heterocyclic compounds as immunomodulators” (Incyte Corporation, priority 2016, dated 2023)

Each compound was assayed against PD-1/PD-L1 protein/protein interaction (Homo sapiens (Human), UniProt Q9NZQ7) (assay: PD-1/PD-L1 Homogeneous Time-Resolved Fluorescence (HTRF) Binding Assay). Conditions: recombinant human PD-L1 (19-238) His-tag 10 nM, human PD-1 (25-167) Fc tag 3 nM, 25° C., PBS pH 7.4.
Chain of PD-1/PD-L1 protein/protein interaction (Q9NZQ7 19-238): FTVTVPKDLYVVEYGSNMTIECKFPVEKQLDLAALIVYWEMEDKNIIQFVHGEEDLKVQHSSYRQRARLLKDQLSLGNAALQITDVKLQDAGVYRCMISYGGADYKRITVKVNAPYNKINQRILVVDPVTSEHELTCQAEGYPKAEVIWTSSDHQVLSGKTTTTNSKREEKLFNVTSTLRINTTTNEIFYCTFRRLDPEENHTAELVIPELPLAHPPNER
Experimental: The assays were conducted in a standard black 384-well polystyrene plate with a final volume of 20 μL. Inhibitors were first serially diluted in DMSO and then added to the plate wells before the addition of other reaction components. The final concentration of DMSO in the assay was 1%. The assays were carried out at 25° C. in the PBS buffer (pH 7.4) with 0.05% Tween-20 and 0.1% BSA. Recombinant human PD-L1 protein (19-238) with a His-tag at the C-terminus was purchased from AcroBiosystems (PD1-H5229). Recombinant human PD-1 protein (25-167) with Fc tag at the C-terminus was also purchased from AcroBiosystems (PD1-H5257). PD-L1 and PD-1 proteins were diluted in the assay buffer and 10 μL was added to the plate well. Plates were centrifuged and proteins were preincubated with inhibitors for 40 minutes. The incubation was followed by the addition of 10 μL of HTRF detection buffer supplemented with Europium cryptate-labeled anti-human IgG (PerkinElmer-AD0212) specific for Fc and anti-His antibody conjugated to SureLight®-Allophycocyanin (APC, PerkinElmer-AD0059H). After centrifugation, the plate was incubated at 25° C. for 60 min. before reading on a PHERAstar FS plate reader (665 nm/620 nm ratio). Final concentrations in the assay were—3 nM PD1, 10 nM PD-L1, 1 nM europium anti-human IgG and 20 nM anti-His-Allophycocyanin. IC50 determination was performed by fitting the curve of percent control activity versus the log of the inhibitor concentration using the GraphPad Prism 5.0 software.
With `Cc1c(NC(=O)c2ncc(CN3CCCC[C@H]3C(=O)O)s2)cccc1-c1ccccc1` [Example 1, (2S)-1-[(2-{[(2-methylbiphenyl-3-yl)amino]carbonyl}-1,3-thiazol-5-yl)methyl]piperidine-2-carboxylic acid] the IC50 was no more than 100 nM.
For `Cc1c(NC(=O)c2ncc(CNCCO)s2)cccc1-c1ccccc1` [Example 2, 5-{[(2-hydroxyethyl)amino]methyl}-N-(2-methylbiphenyl-3-yl)-1,3-thiazole-2-carboxamide], the IC50 was no more than 100 nM.
With `Cc1c(NC(=O)c2ncc(CNCCO)o2)cccc1-c1ccccc1` [Example 3, 5-{[(2-hydroxyethyl)amino]methyl}-N-(2-methylbiphenyl-3-yl)-1,3-oxazole-2-carboxamide] the IC50 was 100 to 500 nM.
Compound `Cc1c(NC(=O)c2ncc(CN3CCCC[C@H]3C(=O)O)n2C)cccc1-c1ccccc1` [Example 4, (2S)-1-[(1-methyl-2-{[(2-methylbiphenyl-3-yl)amino]carbonyl}-1H-imidazol-5-yl)methyl]piperidine-2-carboxylic acid] has an IC50 of 100 to 500 nM.
In the case of `Cc1c(NC(=O)c2ncc(CNCCO)n2C)cccc1-c1ccccc1` [Example 5, 5-{[(2-hydroxyethyl)amino]methyl}-1-methyl-N-(2-methylbiphenyl-3-yl)-1H-imidazole-2-carboxamide], the IC50 is reported as no more than 100 nM.
`Cc1c(NC(=O)c2cc(CN3CCCC[C@H]3C(=O)O)n(C)n2)cccc1-c1ccccc1` [Example 6, (2S)-1-[(1-methyl-3-{[(2-methylbiphenyl-3-yl)amino]carbonyl}-1H-pyrazol-5-yl)methyl]piperidine-2-carboxylic acid] was tested, and the IC50 was no more than 100 nM.
`Cc1c(NC(=O)c2cc(CNCCO)n(C)n2)cccc1-c1ccccc1` [Example 7, 5-{[(2-hydroxyethyl)amino]methyl}-1-methyl-N-(2-methylbiphenyl-3-yl)-1H-pyrazole-3-carboxamide] was tested, and the IC50 was no more than 100 nM.
`Cc1c(NC(=O)c2nc(Cl)c(CNCCO)s2)cccc1-c1ccccc1` [Example 8, 4-chloro-5-{[(2-hydroxyethyl)amino]methyl}-N-(2-methylbiphenyl-3-yl)-1,3-thiazole-2-carboxamide] gave an IC50 of no more than 100 nM.
For `Cc1nc(C(=O)Nc2cccc(-c3ccccc3)c2C)sc1CNCCO` [Example 9, 5-{[(2-hydroxyethyl)amino]methyl}-4-methyl-N-(2-methylbiphenyl-3-yl)-1,3-thiazole-2-carboxamide], the IC50 was no more than 100 nM.
`Cn1nc(C(=O)Nc2cccc(-c3ccc4c(c3)OCCO4)c2C#N)cc1CNCCO` [Example 10, N-[2-cyano-3-(2,3-dihydro-1,4-benzodioxin-6-yl)phenyl]-5-{[1(2-hydroxyethyl)amino]methyl}-1-methyl-1H-pyrazole-3-carboxamide] was tested, and the IC50 was no more than 100 nM.
For `Cn1nc(C(=O)Nc2cccc(-c3ccccc3F)c2C#N)cc1CNCCO` [Example 11, N-(2-cyano-2′-fluorobiphenyl-3-yl)-5-{[(2-hydroxyethyl)amino]methyl}-1-methyl-1H-pyrazole-3-carboxamide], the IC50 was no more than 100 nM.
With `COc1cccc(-c2cccc(NC(=O)c3cc(CNCCO)n(C)n3)c2C#N)c1F` [Example 12, N-(2-cyano-2′-fluoro-3′-methoxybiphenyl-3-yl)-5-{[(2-hydroxyethyl)amino]methyl}-1-methyl-1H-pyrazole-3-carboxamide] the IC50 was no more than 100 nM.
Work on `Cn1nc(C(=O)Nc2cccc(-c3cccc4c3cnn4C)c2C#N)cc1CNCCO` [Example 13, N-[2-cyano-3-(1-methyl-1H-indazol-4-yl)phenyl]-5-{[(2-hydroxyethyl)amino]methyl}-1-methyl-1H-pyrazole-3-carboxamide] yielded an IC50 of no more than 100 nM.
`Cn1c(CNCCO)cnc1C(=O)Nc1cccc(-c2ccc3c(c2)OCCO3)c1C#N` [Example 14, N-[2-cyano-3-(2,3-dihydro-1,4-benzodioxin-6-yl)phenyl]-5-{[1(2-hydroxyethyl)amino]methyl}-1-methyl-1H-imidazole-2-carboxamide] gave an IC50 of no more than 100 nM.
Compound `COc1cccc(-c2cccc(NC(=O)c3ncc(CNCCO)n3C)c2C#N)c1F` [Example 15, N-(2-cyano-2′-fluoro-3′-methoxybiphenyl-3-yl)-5-{[(2-hydroxyethyl)amino]methyl}-1-methyl-1H-imidazole-2-carboxamide] has an IC50 of no more than 100 nM.
`Cn1c(CNCCO)cnc1C(=O)Nc1cccc(-c2cccc3c2cnn3C)c1C#N` [Example 16, N-[2-cyano-3-(1-methyl-1H-indazol-4-yl)phenyl]-5-{[(2-hydroxyethyl)amino]methyl}-1-methyl-1H-imidazole-2-carboxamide] showed an IC50 of 100 to 500 nM.
Compound `Cc1c(COc2cc(OCc3cncc(C#N)c3)c(CN3CCCC[C@H]3C(=O)O)cc2Cl)cccc1-c1cccc(NC(=O)c2ncc(CNCCO)s2)c1C` [Example 17, (S)-1-(5-chloro-2-((5-cyanopyridin-3-yl)methoxy)-4-((3′-(5-(((2-hydroxyethyl)amino)methyl)thiazole-2-carboxamido)-2,2′-dimethyl-[1,1′-biphenyl]-3-yl)methoxy)benzyl)piperidine-2-carboxylic acid] has an IC50 of no more than 100 nM.
Compound `Cc1c(COc2cc(OCc3cncc(C#N)c3)c(CN3CCCC[C@H]3C(=O)O)cc2Cl)cccc1-c1cccc(NC(=O)c2ncc(CN3CC[C@@H](O)C3)s2)c1C` [Example 18, (S)-1-(5-chloro-2-((5-cyanopyridin-3-yl)methoxy)-4-((3′-(5-(((R)-3-hydroxypyrrolidin-1-yl)methyl)thiazole-2-carboxamido)-2,2′-dimethyl-[1,1′-biphenyl]-3-yl)methoxy)benzyl)piperidine-2-carboxylic acid] has an IC50 of no more than 100 nM.
`Cc1c(NC(=O)c2cc(CN3CC[C@@H](O)C3)n(C)n2)cccc1-c1cccc(NC(=O)c2ncc(CN3CC[C@@H](O)C3)s2)c1C` [Example 19, 5-(((R)-3-hydroxypyrrolidin-1-yl)methyl)-N-(3′-(5-(((R)-3-hydroxypyrrolidin-1-yl)methyl)-1-methyl-1H-pyrazole-3-carboxamido)-2,2′-dimethyl-[1,1′-biphenyl]-3-yl)thiazole-2-carboxamide] was tested, and the IC50 was no more than 100 nM.
